Assay results as given in US20210369615A1, “SOLID ORAL FORMULATIONS OF AMPHOTERICIN B” (iCo Therapeutics Inc., priority 2018, published 2021).
“And” between values parts separate entries of the source, which are not always exact repeats. Identical values can stand only once.

Experiment: Phase 1 single dose escalation pharmacokinetic study, Amphotericin B in human plasma
Type: in vivo
Method: A phase 1, randomized, double-blind, placebo-controlled, single dose escalation study was performed to evaluate the pharmacokinetic parameters after administration of a single dose of Formula 1A. 100 mg (FIG. 10A), 200 mg (FIG. 10B), 400 mg (FIG. 10C) and 800 mg (FIG. 10D) doses were investigated in this study.
For each dose, AmpB or a placebo was administered, and blood samples were obtained pre-dose, and post-dosing at 0.5 hr, 1 hr, 2 hr, 3 hr, 4 hr, 6 hr, 8 hr, 10 hr, 12 hr, 24 hr, 36 hr, 48 hr, 60 hr, 72 hr, 144 hr, and 192 hr. Pharmacokinetic analysis was performed using Phoenix™ WinNonlin® (Pharsight Corporation). Doses and sampling times were entered as provided by the sponsor. Dose normalised parameters, and descriptive statistics were calculated using Phoenix™ WinNonlin®.
Where Ct is the last measurable concentration and Kel is the elimination rate constant estimated using log-linear regression during the terminal elimination phase. • t½: Elimination half-life, determined by ln(2)/Kel • CL/f: Observed Systemic clearance, calculated as dose/AUC • Vz: Observed Volume of distribution during the terminal phase, calculated as CL/Kel

[1] = single 200 mg dose (Formula 1A), Mean, N 6
[2] = single 200 mg dose (Formula 1A), Median, N 6
[3] = single 200 mg dose (Formula 1A), individual subjects I, 3, K, M, N, P
[4] = single 400 mg dose (Formula 1A), Geometric Mean, N 6
[5] = single 400 mg dose (Formula 1A), Mean, N 6
[6] = single 400 mg dose (Formula 1A), Median, N 6
[7] = single 400 mg dose (Formula 1A), individual subjects R, S, T, U, V, W

## C[C@@H]1[C@H](O)[C@@H](C)/C=C/C=C/C=C/C=C/C=C/C=C/C=C/[C@H](O[C@@H]2O[C@H](C)[C@@H](O)[C@H](N)[C@@H]2O)C[C@@H]2O[C@](O)(C[C@@H](O)C[C@@H](O)[C@H](O)CC[C@@H](O)C[C@@H](O)CC(=O)O[C@H]1C)C[C@H](O)[C@H]2C(=O)O [Amphotericin B]
[1]
  AUCO-inf: 1066.59 ng·h/mL
  AUCO-t: 856.21 ng·h/mL
  CL/F: 197223.58 mL/h
  Cmax: 29.70 ng/mL
  Kel: 0.03 h⁻¹
  Tmax: 6.33 h
  T½: 29.35 h
  V/F: 8022007.31 mL
[2]
  % AUCexp: 15.83%
  AUCO-inf: 1061.32 ng·h/mL
  AUCO-t: 804.02 ng·h/mL
  CL/F: 189651.36 mL/h
  Cmax: 28.62 ng/mL
  Kel: 0.03 h⁻¹
  Tmax: 6.00 h
  T½: 24.59 h
  V/F: 7174305.73 mL
[3]
  % AUCexp: 51.97% and 15.07% and 6.50% and 16.58% and 4.05% and 19.85%
  AUCO-inf: 1241.16 ng·h/mL and 1146.01 ng·h/mL and 1438.52 ng·h/mL and 737.08 ng·h/mL and 860.11 ng·h/mL and 976.64 ng·h/mL
  AUCO-t: 596.14 ng·h/mL and 973.27 ng·h/mL and 1344.94 ng·h/mL and 614.86 ng·h/mL and 825.30 ng·h/mL and 782.74 ng·h/mL
  CL/F: 161138.94 mL/h and 174518.59 mL/h and 139032.26 mL/h and 271340.46 mL/h and 232527.11 mL/h and 204784.12 mL/h
  Cmax: 18.77 ng/mL and 27.35 ng/mL and 42.46 ng/mL and 23.41 ng/mL and 36.31 ng/mL and 29.90 ng/mL
  Kel: 0.01 1/hr and 0.03 1/hr (3×) and 0.05 1/hr (2×)
  Tmax: 6.00 h and 8.00 h
  T½: 68.82 h and 24.69 h and 15.32 h and 24.50 h and 15.26 h and 27.53 h
  V/F: 15999011.64 mL and 6215853.68 mL and 3073693.76 mL and 9591266.45 mL and 5119460.58 mL and 8132757.78 mL
[4]
  % AUCexp: 25.23%
  AUCO-inf: 1799.36 ng·h/mL
  AUCO-t: 1045.59 ng·h/mL
  CL/F: 222300.98 mL/h
  Cmax: 28.16 ng/mL
  Kel: 0.02 h⁻¹
  Tmax: 7.11 h
  T½: 42.43 h
  V/F: 13606337.94 mL
[5]
  % AUCexp: 36.21%
  AUCO-inf: 2494.19 ng·h/mL
  AUCO-t: 1148.77 ng·h/mL
  CL/F: 300584.11 mL/h
  Cmax: 29.04 ng/mL
  Kel: 0.02 h⁻¹
  Tmax: 7.33 h
  T½: 57.04 h
  V/F: 15172419.27 mL
[6]
  % AUCexp: 33.41%
  AUCO-inf: 2029.33 ng·h/mL
  AUCO-t: 1089.21 ng·h/mL
  CL/F: 197696.44 mL/h
  Cmax: 28.44 ng/mL
  Kel: 0.02 h⁻¹
  Tmax: 6.00 h
  T½: 39.03 h
  V/F: 12667205.14 mL
[7]
  % AUCexp: 73.99% and 4.55% and 35.27% and 11.36% and 31.55% and 60.51%
  AUCO-inf: 7138.99 ng·h/mL and 981.05 ng·h/mL and 1918.71 ng·h/mL and 520.98 ng·h/mL and 2265.43 ng·h/mL and 2139.96 ng·h/mL
  AUCO-t: 1856.79 ng·h/mL and 936.40 ng·h/mL and 1242.03 ng·h/mL and 461.79 ng·h/mL and 1550.60 ng·h/mL and 845.03 ng·h/mL
  CL/F: 56030.30 mL/h and 407726.35 mL/h and 208473.83 mL/h and 767787.87 mL/h and 176567.28 mL/h and 186919.05 mL/h
  Cmax: 41.12 ng/mL and 26.38 ng/mL and 30.49 ng/mL and 21.86 ng/mL and 34.26 ng/mL and 20.15 ng/mL
  Kel: 0.00 1/hr and 0.05 1/hr and 0.02 1/hr (2×) and 0.03 1/hr and 0.01 1/hr
  Tmax: 10.00 h and 6.00 h
  T½: 142.05 h and 13.66 h and 46.06 h and 24.18 h and 32.01 h and 84.28 h
  V/F: 11482617.37 mL and 8037364.81 mL and 13851792.91 mL and 26779550.10 mL and 8154849.30 mL and 22728341.15 mL
